In patent publication US9938240B2, “Fluorinated derivatives of 3-hydroxypyridin-4-ones” (Apotex Technologies Inc., priority 2009, dated 2018):

Assays:
[1] = Stoichiometry of Fe-complexes by Job's method; format: physicochemical; details: 0.1 M MOPS pH 7.4, absorbance at 458 nm
Experimental: In a typical experiment Fe-Apo7053 complex solutions were prepared by mixing a stock solution of Fe^2+ (atomic absorption standard, 989 μg/mL in 1 wt % HCl, Aldrich) and a stock solution of Apo7053 (7.88×10^−3 M in 0.1 M MOPS, pH 7.4). Twelve sample solutions were prepared. While the sum of the total iron concentration ([iron]total) and the total ligand concentration ([L]total) in each of the 12 sample solutions were kept constant (8.00×10^−4 M), the molar fraction of the ligand, α (α=[L]total/([L]total+[iron]total)), for the 12 sample solutions were different, and were prepared as 0.0, 0.1, 0.2, 0.3, 0.4, 0.5, 0.6, 0.7, 0.75, 0.8, 0.9 and 1.0, respectively. The total volume for each of the 12 sample solutions was 5 mL, using MOPS (0.1 M, pH 7.4) as the solvent. The pH of the 12 solutions were adjusted to pH 7.4 with NaOH. The sample solutions were vortexed at rt for 2.5 h, and then stayed at rt overnight. The sample solutions were centrifuged at 4000 rpm for 15 min. The UV-Vis spectrum was recorded at 22° C. for each of the 12 solutions.
A Job's plot was created with the absorbance at 458 nm as the y-axis and α as the x-axis. A maximum absorbance was found at α=0.75, which corresponds to an iron:ligand ratio of 1:3 in the complexes.

[2] = Benzoic acid hydroxylation assay; details: benzoic acid 1 mM, H2O2 6 mM, FeCl3 30 μM, chelator 30 μM, pH 7.4, up to 81 h
Text: Benzoic acid is a hydroxyl radical scavenger and reacts with hydroxyl radical to give 2-hydroxy, 3-hydroxy and 4-hydroxybenzoic acids. The benzoic acid hydroxylation assay is a chemical assay designed to detect damage caused by hydroxyl radical (Dean and Nicholson, Free Radical Research 1994, vol 20, 83-101). For example, deferiprone suppresses the formation of hydroxybenzoic acids in the presence of iron salts and hydrogen peroxide, while EDTA and iron salts allow such hydroxylation reactions to take place.
This screening assay involves the use of iron salt, benzoic acid, hydrogen peroxide and the chelator and measures the ability of the chelator to inhibit the formation of hydroxybenzoate as an indicator to prevent hydroxyl radical formation in living system.
Briefly, this procedure is based on the ability of hydroxyl radicals to hydroxylate benzoate to give 2-, 3- and 4-hydroxylated benzoic acid products. Benzoic acid (1 mM) is incubated over time up to 81 h at room temperature in the dark in 10 mM phosphate buffer (pH 7.4) with 6 mM hydrogen peroxide, ferric chloride (30 μM) and the Fe chelator (30 μM). HPLC is the method of choice used to monitor and quantify the amount of 2-, 3- and 4-hydroxylated products formed over time in the reaction mixture, and can be verified against authentic benzoic acid and its hydroxylated products via their respective retention times and areas under curve. In addition, several controls are used: (i) a control without added Fe stock solution and Fe chelator; (ii) a control without added Fe chelator; (iii) EDTA as positive control; and (iv) deferiprone as negative control. The Fe-EDTA system is a hydroxyl radical generator and is known to promote hydroxylation of benzoic acid.

[3] = system: SH-SY5Y human neuroblastoma cells
How it was run: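 SH-SY5Y cells were treated with a range of compound concentrations, with or without 50 μM H2O2, in serum-free medium for 16–22 h. Viability was measured by MTT and expressed relative to cells receiving neither H2O2 nor compound. Runs without H2O2 assessed cytotoxicity.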

[4] = system: human neuroblastoma MC-65 cells; assay: cells
How it was run: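 MC-65 cells (conditional Aβ fusion-protein expression, TET-repressed) were washed free of TET and FBS, then exposed to compound ~48 h in serum-free medium without or with 1 μg/mL TET.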

Structure (SMILES): Cc1c(O)c(=O)c(C(N(C)C)C(F)(F)F)cn1C (centres unmarked) [Apo7053, 5-[1-(dimethylamino)-2,2,2-trifluoroethyl]-3-hydroxy-1,2-dimethylpyridin-4(1H)-one]
- molar fraction of ligand α at maximum absorbance (Job's plot) [1]: 0.75
- hydroxylation of benzoic acid by Fe chelate [2]: do not promote the hydroxylation of benzoic acid
- CC2 (cytotoxic concentration) ([3]; H2O2-treated cells, viability below 80%): >640 µM
- CC1 (cytotoxic concentration) ([3]; absence of H2O2, viability below 80%): 2.2 µM
- EC100 ([4]; Homo sapiens, MC65, 48 h, read-out: EC100 (maximum effective concentration)): 10 µM
- minimal effective concentration ([4]; Homo sapiens, MC65, 48 h, read-out: TH (threshold protective concentration)): 0.1 µM
- CC2 (cytotoxic concentration) ([4]; MC-65, cultured without tetracycline, viability below 80%): 20 µM
- CC1 (cytotoxic concentration) ([4]; MC-65, presence of TET, viability below 80%): 40 µM
